Source: ChEMBL document CHEMBL1140165, “Rotationally constrained 2,4-diamino-5,6-disubstituted pyrimidines: a new class of histamine H4 receptor antagonists with improved druglikeness and in vivo efficacy in pain and inflammation models” (J Med Chem, 2008)
Active and inactive are the calls of the source. The rule behind the calls is not given here.

Key:
Liver microsomes [1] = assay: Metabolic stability in human liver microsomes; type: ADME, Microsome
[2] = target: Cannabinoid receptor 2 (Homo sapiens) (UniProt P34972); assay: Binding affinity to CB2 receptor
[3] = target: Mu-type opioid receptor (Homo sapiens) (UniProt P35372); assay: Binding affinity to mu opioid receptor
[4] = target: Delta-type opioid receptor (Homo sapiens) (UniProt P41143); assay: Binding affinity to delta opioid receptor
Histamine H4 receptor [5] = target: T1, Histamine H4 receptor (Rattus norvegicus, UniProt Q91ZY1); assay: Displacement of [3H]histamine from rat histamine H4 receptor expressed in HEK293 cells; type: cell-based
[6] = Protein binding in rat; type: ADME, organism-based; conditions: in vivo, read-out: PB (converted)
[7] = Fractional bioavailability in rat at 10 mg/kg, iv and 10 mg/kg, po; type: ADME, organism-based; conditions: in vivo
Mus musculus [8] = assay: Antiinflammatory activity against ip dosed BALB/c mouse assessed as inhibition of zymosan-induced peritonitis after 2 hrs pretreated 30 mins before zymosan challenge; type: functional
[9] = target: Kappa-type opioid receptor (Homo sapiens) (UniProt P41145); assay: Binding affinity to kappa opioid receptor
Histamine H4 receptor [10] = target: T1, Histamine H4 receptor; assay: Antagonist activity at rat histamine H4 receptor expressed in HEK293 cells assessed as inhibition of histamine-induced intracellular calcium elevation by FLIPR assay; type: functional, cell-based
[11] = Terminal volume of distribution in rat at 10 mg/kg, iv; type: ADME, organism-based; set-up: dose 10 mg/kg, route intravenous; conditions: in vivo, read-out: Vbeta
[12] = Blood clearance in rat at 10 mg/kg, iv; type: ADME, organism-based; set-up: dose 10 mg/kg, route intravenous; conditions: whole blood
Rattus norvegicus [13] = assay: Antinociceptive efficacy in rat assessed as inhibition of carrageenan-induced inflammatory pain in paw at 100 umol/kg, ip after 30 mins by hotbox assay relative to control; type: functional
[14] = Fractional bioavailability in rat at 5 mg/kg, iv and 5 mg/kg, po; type: ADME, organism-based; conditions: in vivo
[15] = target: Prostaglandin G/H synthase 1 (Homo sapiens) (UniProt P23219); assay: Binding affinity at COX1
BMMC = assay: Blockade of histamine-induced morphological changes in BALB/c mouse BMMC by flow cytometry; type: functional, cell-based
[16] = Metabolic stability in mouse liver microsomes; type: ADME, Microsome
Rattus norvegicus [17] = assay: Antinociceptive efficacy in spinal nerve ligated Sprague-Dawley rat assessed as reduction of neuropathic pain in left side paw at 100 umol/kg, ip administered 30 mins before testing relative to control; type: functional
Histamine H4 receptor [18] = target: T2, Histamine H4 receptor (Homo sapiens, UniProt Q9H3N8); conditions: HEK293
[19] = Ratio of drug level in brain to plasma in rat at 10 mg/kg, iv after 30 mins; type: ADME, organism-based; set-up: dose 10 mg/kg, route intravenous
Histamine H4 receptor [20] = target: T3, Histamine H4 receptor (Mus musculus, UniProt Q91ZY2); assay: Antagonist activity at mouse histamine H4 receptor expressed in HEK293 cells assessed as inhibition of histamine-induced intracellular calcium elevation by FLIPR assay; type: functional, cell-based
T3 sequence (Q91ZY2 whole entry): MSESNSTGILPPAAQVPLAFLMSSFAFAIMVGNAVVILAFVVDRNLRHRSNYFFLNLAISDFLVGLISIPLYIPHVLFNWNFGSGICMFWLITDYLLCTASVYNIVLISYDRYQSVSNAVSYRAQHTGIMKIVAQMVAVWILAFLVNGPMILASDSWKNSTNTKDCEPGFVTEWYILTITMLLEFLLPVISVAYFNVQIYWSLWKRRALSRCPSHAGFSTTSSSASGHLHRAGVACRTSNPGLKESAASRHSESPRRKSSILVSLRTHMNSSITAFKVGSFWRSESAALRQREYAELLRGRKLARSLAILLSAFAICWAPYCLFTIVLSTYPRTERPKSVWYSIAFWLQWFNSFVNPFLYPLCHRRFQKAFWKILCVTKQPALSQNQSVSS

[21] = target: Cannabinoid receptor 1 (Homo sapiens) (UniProt P21554); assay: Binding affinity to CB1 receptor
[22] = Half life in rat at 10 mg/kg, iv; type: ADME, organism-based; set-up: dose 10 mg/kg, route intravenous; conditions: in vivo
Cytochrome P450 3A4 = Cytochrome P450 3A4 (Homo sapiens, UniProt P08684); assay: Inhibition of CYP3A4 upto 10 uM; type: ADME
Mus musculus [23] = assay: Blood clearance in mouse at 5 mg/kg, iv; type: ADME, organism-based; set-up: dose 5 mg/kg, route intravenous; conditions: in vivo
Mus musculus [24] = assay: Inhibition of clobenpropit-induced itching in ip dosed CD1/ICR mouse assessed as blockade of scratching in hind paw for 25 mins pretreated 30 mins before clobenpropit challenge; type: functional
[25] = Protein binding in human; type: ADME, organism-based; conditions: in vivo, read-out: PB (converted)
[26] = Half life in mouse at 5 mg/kg, iv; type: ADME, organism-based; set-up: dose 5 mg/kg, route intravenous; conditions: in vivo
[27] = target: T4, Prostaglandin G/H synthase 2 (Homo sapiens) (UniProt P35354); assay: Binding affinity at COX2
T4 sequence (whole entry): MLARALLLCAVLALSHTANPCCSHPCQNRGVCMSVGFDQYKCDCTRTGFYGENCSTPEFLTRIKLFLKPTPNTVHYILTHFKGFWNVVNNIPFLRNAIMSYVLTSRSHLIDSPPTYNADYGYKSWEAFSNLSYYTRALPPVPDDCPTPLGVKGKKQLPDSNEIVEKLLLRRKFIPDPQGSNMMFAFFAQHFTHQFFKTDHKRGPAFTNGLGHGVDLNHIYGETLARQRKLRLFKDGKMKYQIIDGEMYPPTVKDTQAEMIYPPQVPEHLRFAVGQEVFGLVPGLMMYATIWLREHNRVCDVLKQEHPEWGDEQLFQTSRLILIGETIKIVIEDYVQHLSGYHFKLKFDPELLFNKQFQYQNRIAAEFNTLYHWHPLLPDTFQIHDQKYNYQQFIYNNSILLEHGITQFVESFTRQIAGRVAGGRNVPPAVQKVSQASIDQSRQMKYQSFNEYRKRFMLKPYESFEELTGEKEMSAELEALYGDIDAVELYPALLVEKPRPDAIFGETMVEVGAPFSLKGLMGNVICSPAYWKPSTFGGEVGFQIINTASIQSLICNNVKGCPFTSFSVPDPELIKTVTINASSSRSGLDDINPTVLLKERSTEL

Rattus norvegicus [28] = assay: Antinociceptive efficacy in ip dosed rat assessed as inhibition of carrageenan-induced inflammatory pain in paw after 30 mins by hotbox assay; type: functional; conditions: 0.5 h
Liver microsomes [29] = assay: Metabolic stability in rat liver microsomes; type: ADME, Microsome
Cytochrome P450 2D6 = Cytochrome P450 2D6 (Homo sapiens, UniProt P10635); assay: Inhibition of CYP2D6 upto 10 uM; type: ADME
Cytochrome P450 2C9 = Cytochrome P450 2C9 (Homo sapiens, UniProt P11712); assay: Inhibition of CYP2C9 upto 10 uM; type: ADME
[30] = Terminal volume of distribution in mouse at 5 mg/kg, iv; type: ADME, organism-based; set-up: dose 5 mg/kg, route intravenous; conditions: in vivo, read-out: Vbeta
Rattus norvegicus [31] = assay: Antinociceptive efficacy in spinal nerve ligated Sprague-Dawley rat assessed as reduction of neuropathic pain in left side paw at 500 umol/kg, ip administered 30 mins before testing relative to control; type: functional
[32] = Selectivity ratio of Ki for human histamine H4 receptor to Ki for histamine H2 receptor
Homo sapiens = organism: Homo sapiens; assay: Selectivity ratio of Ki for human histamine H4 receptor to Ki for human histamine H3 receptor
[33] = Selectivity ratio of Ki for human histamine H4 receptor to Ki for adrenergic alpha1 receptor
[34] = Selectivity ratio of Ki for human histamine H4 receptor to Ki for 5HT1A receptor
[35] = Selectivity ratio of Ki for human histamine H4 receptor to Ki for histamine H1 receptor
Histamine H4 receptor [36] = target: T2, Histamine H4 receptor; assay: Displacement of [3H]histamine from human histamine H4 receptor expressed in HEK293 cells; type: cell-based; conditions: read-out: Ki
[37] = Selectivity ratio of Ki for human histamine H4 receptor to Ki for 5HT2A receptor
[38] = Selectivity ratio of Ki for human histamine H4 receptor to Ki for 5HT1D receptor
Rattus norvegicus [39] = assay: Antinociceptive efficacy in spinal nerve ligated Sprague-Dawley rat assessed as reduction of neuropathic pain in left side paw at 300 umol/kg, ip administered 30 mins before testing relative to control; type: functional
[40] = Selectivity ratio of Ki for human histamine H4 receptor to Ki for dopamine D2 receptor

T2 sequence (Q9H3N8 whole entry): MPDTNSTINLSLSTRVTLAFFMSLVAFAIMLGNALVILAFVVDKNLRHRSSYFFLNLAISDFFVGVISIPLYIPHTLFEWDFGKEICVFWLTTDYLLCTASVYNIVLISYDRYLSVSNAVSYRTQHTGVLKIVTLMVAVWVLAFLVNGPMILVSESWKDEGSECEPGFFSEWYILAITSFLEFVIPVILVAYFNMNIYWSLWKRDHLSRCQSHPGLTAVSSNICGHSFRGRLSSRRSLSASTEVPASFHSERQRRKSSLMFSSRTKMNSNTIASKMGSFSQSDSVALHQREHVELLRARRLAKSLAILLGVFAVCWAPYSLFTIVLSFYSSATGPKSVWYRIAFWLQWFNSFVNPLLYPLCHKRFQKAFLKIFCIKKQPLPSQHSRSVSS
T1 sequence (Q91ZY1 whole entry): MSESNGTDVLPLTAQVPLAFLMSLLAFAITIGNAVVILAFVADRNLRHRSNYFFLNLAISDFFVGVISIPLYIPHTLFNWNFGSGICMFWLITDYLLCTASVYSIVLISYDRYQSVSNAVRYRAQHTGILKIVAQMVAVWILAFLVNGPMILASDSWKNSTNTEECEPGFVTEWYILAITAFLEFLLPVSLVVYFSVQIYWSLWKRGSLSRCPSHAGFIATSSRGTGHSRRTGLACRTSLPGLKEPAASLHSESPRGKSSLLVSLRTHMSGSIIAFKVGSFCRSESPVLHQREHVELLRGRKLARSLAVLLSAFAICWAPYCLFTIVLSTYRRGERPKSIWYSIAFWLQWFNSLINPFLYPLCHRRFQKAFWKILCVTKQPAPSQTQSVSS
Chain of Prostaglandin G/H synthase 1 (Homo sapiens) (P23219 whole entry): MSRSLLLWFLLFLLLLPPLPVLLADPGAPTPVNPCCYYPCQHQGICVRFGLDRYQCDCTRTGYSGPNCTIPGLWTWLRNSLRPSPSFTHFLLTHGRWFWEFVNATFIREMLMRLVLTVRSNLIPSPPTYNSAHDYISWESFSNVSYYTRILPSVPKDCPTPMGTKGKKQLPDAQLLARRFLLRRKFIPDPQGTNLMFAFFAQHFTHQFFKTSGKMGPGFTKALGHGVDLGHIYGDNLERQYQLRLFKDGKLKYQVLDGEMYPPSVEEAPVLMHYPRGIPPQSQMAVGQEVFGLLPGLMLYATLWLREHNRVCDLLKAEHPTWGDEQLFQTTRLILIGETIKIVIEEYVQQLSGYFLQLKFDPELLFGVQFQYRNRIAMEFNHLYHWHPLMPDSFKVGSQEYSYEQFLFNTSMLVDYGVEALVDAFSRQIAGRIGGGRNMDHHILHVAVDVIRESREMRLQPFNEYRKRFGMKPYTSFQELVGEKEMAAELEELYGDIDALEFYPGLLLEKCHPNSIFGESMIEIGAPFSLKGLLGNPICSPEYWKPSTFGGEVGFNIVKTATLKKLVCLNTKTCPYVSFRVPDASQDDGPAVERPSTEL
Chain of Kappa-type opioid receptor (Homo sapiens) (P41145 whole entry): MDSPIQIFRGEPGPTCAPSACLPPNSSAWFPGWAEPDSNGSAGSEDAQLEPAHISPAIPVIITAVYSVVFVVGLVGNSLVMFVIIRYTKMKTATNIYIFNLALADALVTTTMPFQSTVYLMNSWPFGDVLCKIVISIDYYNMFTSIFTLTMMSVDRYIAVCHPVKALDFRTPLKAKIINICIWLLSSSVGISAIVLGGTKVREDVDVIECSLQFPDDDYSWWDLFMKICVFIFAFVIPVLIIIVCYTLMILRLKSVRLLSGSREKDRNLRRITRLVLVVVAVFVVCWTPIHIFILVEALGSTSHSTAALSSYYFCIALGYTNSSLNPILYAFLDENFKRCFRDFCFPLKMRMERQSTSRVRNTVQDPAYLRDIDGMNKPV
Chain of Delta-type opioid receptor (Homo sapiens) (P41143 whole entry): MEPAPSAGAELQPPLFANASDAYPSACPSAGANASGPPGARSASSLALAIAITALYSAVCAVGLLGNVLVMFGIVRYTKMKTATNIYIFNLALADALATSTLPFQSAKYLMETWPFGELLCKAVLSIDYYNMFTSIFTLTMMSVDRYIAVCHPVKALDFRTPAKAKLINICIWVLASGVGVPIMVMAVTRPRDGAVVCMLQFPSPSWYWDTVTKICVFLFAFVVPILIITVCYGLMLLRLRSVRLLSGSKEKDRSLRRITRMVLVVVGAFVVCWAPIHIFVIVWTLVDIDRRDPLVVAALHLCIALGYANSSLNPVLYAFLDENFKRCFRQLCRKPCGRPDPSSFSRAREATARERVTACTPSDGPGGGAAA
Chain of Cytochrome P450 2C9 (P11712 whole entry): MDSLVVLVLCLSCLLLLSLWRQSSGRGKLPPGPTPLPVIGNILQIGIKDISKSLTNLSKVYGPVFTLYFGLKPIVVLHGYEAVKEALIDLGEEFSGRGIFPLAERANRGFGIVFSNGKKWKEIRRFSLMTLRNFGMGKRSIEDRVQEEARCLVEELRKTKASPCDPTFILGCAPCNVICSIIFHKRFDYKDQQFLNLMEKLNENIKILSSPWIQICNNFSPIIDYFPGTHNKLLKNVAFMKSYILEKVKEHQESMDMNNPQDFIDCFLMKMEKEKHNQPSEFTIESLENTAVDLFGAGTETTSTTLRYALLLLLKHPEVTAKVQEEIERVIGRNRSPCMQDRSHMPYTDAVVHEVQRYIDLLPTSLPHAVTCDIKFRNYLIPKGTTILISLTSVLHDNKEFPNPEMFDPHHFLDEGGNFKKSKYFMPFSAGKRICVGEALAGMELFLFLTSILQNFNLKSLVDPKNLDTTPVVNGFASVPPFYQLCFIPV
Chain of Mu-type opioid receptor (Homo sapiens) (P35372 whole entry): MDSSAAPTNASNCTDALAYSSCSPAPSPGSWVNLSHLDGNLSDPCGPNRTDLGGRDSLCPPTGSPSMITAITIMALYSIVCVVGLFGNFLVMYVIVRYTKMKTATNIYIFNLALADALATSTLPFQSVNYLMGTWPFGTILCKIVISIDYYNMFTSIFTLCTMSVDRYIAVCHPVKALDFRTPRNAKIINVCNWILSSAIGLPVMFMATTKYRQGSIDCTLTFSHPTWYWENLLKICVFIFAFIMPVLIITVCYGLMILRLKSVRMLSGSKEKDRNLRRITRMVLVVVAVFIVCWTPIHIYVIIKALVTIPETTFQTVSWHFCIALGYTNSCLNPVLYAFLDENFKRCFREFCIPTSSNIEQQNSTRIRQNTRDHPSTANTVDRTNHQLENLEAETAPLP
Chain of Cytochrome P450 2D6 (P10635 whole entry): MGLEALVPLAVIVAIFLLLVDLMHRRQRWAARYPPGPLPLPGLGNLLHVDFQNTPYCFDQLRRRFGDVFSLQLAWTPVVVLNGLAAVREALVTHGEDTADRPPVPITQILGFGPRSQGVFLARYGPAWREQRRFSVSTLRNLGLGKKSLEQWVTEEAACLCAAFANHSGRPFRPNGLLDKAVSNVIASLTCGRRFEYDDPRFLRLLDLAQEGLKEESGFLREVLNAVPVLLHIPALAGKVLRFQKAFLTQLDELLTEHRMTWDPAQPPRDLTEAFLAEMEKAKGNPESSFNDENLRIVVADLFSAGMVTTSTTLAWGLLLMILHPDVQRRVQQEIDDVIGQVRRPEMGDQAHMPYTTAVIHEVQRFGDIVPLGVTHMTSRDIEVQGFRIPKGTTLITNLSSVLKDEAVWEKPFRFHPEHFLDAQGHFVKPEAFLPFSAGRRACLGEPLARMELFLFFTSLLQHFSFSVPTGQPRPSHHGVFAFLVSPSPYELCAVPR
Chain of Cytochrome P450 3A4 (P08684 whole entry): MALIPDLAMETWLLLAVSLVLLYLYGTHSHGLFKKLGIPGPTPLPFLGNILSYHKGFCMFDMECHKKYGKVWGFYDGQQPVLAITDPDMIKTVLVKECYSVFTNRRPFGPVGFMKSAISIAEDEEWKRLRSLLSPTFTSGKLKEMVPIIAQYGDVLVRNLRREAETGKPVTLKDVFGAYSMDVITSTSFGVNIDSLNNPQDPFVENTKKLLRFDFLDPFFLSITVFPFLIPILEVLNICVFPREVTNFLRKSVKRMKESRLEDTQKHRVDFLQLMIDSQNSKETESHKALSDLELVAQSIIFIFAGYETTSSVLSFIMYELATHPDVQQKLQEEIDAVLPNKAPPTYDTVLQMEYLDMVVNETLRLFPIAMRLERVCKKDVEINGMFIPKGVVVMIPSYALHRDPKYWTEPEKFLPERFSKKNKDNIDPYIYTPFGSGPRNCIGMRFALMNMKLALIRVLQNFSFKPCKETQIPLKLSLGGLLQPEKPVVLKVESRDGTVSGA
Chain of Cannabinoid receptor 2 (Homo sapiens) (P34972 whole entry): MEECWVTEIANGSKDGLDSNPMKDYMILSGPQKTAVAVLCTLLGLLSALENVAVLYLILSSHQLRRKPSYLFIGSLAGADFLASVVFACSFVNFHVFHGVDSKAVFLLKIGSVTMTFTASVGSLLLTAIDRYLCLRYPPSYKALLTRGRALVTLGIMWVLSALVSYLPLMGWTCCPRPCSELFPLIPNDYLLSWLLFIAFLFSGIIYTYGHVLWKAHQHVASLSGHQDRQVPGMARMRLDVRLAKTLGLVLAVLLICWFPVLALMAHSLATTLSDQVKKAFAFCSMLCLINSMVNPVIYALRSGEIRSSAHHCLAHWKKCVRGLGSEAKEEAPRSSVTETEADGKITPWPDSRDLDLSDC
Chain of Cannabinoid receptor 1 (Homo sapiens) (P21554 whole entry): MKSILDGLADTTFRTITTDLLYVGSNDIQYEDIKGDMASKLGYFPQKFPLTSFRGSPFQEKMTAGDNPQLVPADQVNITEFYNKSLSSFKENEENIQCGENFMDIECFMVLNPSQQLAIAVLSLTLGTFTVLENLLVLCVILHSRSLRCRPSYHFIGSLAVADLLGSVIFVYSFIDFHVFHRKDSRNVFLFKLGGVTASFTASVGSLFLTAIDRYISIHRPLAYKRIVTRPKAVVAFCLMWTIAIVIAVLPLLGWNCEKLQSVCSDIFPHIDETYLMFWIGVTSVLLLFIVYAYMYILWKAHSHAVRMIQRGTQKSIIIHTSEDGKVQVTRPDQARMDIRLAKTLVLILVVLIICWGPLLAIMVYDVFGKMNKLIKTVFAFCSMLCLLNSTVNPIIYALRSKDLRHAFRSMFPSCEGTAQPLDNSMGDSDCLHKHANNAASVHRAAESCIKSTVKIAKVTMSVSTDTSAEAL

| SMILES | Stability (Liver microsomes [1]) [pmol/min/mg] | Activity [2] | Activity [3] | Activity [4] | Ki (Histamine H4 receptor [5]) [nM] | fraction unbound [6] | ED50 (Mus musculus [8]) [µmol/kg] | Activity [9] | EC50 (Histamine H4 receptor [10]) [nM] | Efficacy (Rattus norvegicus [13]) [%] | Activity [15] | Activity (BMMC) | Stability [16] [pmol/min/mg] | Efficacy (Rattus norvegicus [17]) [%] | pKb (Histamine H4 receptor [18]) | Kp at 0.5 h [19] | EC50 (Histamine H4 receptor [20]) [nM] | Activity [21] | Activity (Cytochrome P450 3A4) | ED50 (Mus musculus [24]) [µmol/kg] | further results |
| --- | --- | --- | --- | --- | --- | --- | --- | --- | --- | --- | --- | --- | --- | --- | --- | --- | --- | --- | --- | --- | --- |
| Nc1nc2c(c(N3CC[C@@H](N)C3)n1)CCCc1ccccc1-2 | 13 | inactive | inactive | inactive | 3.8 | 0.45 | 34 | inactive | 10 | 68 | inactive | Active | 32.9 | 47 | 8.24 | 2.2 | 5.75 | inactive | Not Active | 33 | bioavailability [7]: 34%; Vd [11]: 72.9 L/kg; clearance [12]: 323 mL/min/kg; bioavailability [14]: 90%; half-life [22]: 2.6 h; CL (Mus musculus [23]): 1190 mL/min/kg; fraction unbound [25]: 0.52; half-life [26]: 1.6 h; Activity [27]: inactive; ED50 (Rattus norvegicus [28]): 72 µmol/kg; Stability (Liver microsomes [29]): 19 pmol/min/mg; Activity (Cytochrome P450 2D6): Not Active; Activity (Cytochrome P450 2C9): Not Active; Vd [30]: 131 L/kg |
| NCC1(CC(=O)O)CCCCC1 [GABAPENTIN] |  |  |  |  |  |  |  |  |  |  |  |  |  |  |  |  |  |  |  |  | Efficacy (Rattus norvegicus [31]): 62% |
| CNC1CN(c2nc(N)nc3c2CCCc2ccccc2-3)C1 | 20 | inactive | inactive | inactive | 3.63 | 0.56 | 17 | inactive | 9.33 | 39 | inactive | Active | 38.8 | 36 | 8.05 | 5.8 | 9.12 | inactive | Not Active | 25 | Ratio Ki [32]: > 860; Ratio Ki (Homo sapiens): 93; Ratio Ki [33]: 215; Ratio Ki [34]: 940; Ratio Ki [35]: > 610; Ki (Histamine H4 receptor [36]): 11 nM; Ratio Ki [37]: 235; Ratio Ki [38]: 310; Efficacy (Rattus norvegicus [39]): 78%; fraction unbound [25]: 0.52; Ratio Ki [40]: 123; Activity [27]: inactive; Stability (Liver microsomes [29]): 165 pmol/min/mg; Activity (Cytochrome P450 2D6): Not Active; Activity (Cytochrome P450 2C9): Not Active |
